Values of other authors as cited in article PMC7395068, “The evolution of strategies to minimise the risk of human drug-induced liver injury (DILI) in drug discovery and development” (Archives of Toxicology, 2020).
Where two headings read alike, the source gives them in different places. Where a SMILES comes first, the peptide text is derived from it. [ ]: non-standard residue; d: D form. d(hArg(Et2)) = CCN=C(NCC)NCCCC[C@@H](N)C(=O)O; hArg(Et2) = CCN=C(NCC)NCCCC[C@H](N)C(=O)O; dPhe(4-Cl) = N[C@H](Cc1ccc(Cl)cc1)C(=O)O; d2Nal = N[C@H](Cc1ccc2ccccc2c1)C(=O)O; d3Pal = N[C@H](Cc1cccnc1)C(=O)O

Settings: cited from earlier work
[1] = LTKB DILIrank category, ref Chen 2016
[2] = binary DILI call, ref Chen 2016
[3] = binary in vivo human DILI call, ref Chen 2016
[4] = human DILI, LTKB DILIrank category, ref Chen 2016
[5] = binary in vivo DILI call given beside the severity category, ref Chen 2016
[6] = human DILI concern category (LTKB DILIrank), ref Chen 2016

CCN=C(NCC)NCCCC[C@H](NC(=O)[C@H](CC(C)C)NC(=O)[C@@H](CCCCNC(=NCC)NCC)NC(=O)[C@H](Cc1ccc(O)cc1)NC(=O)[C@H](CO)NC(=O)[C@@H](Cc1cccnc1)NC(=O)[C@@H](Cc1ccc(Cl)cc1)NC(=O)[C@@H](Cc1ccc2ccccc2c1)NC(C)=O)C(=O)N1CCC[C@H]1C(=O)N[C@H](C)C(N)=O [ganirelix acetate] (Ac-[d2Nal][dPhe(4-Cl)][d3Pal]SY[d(hArg(Et2))]L[hArg(Et2)]P[dA]-NH2)
DILI +VE (5-8), DILI -VE (-4) (in vivo): -VE | DILI severity category (in vivo): vNo-DILI-Concern

CCC[C@@H]1C[C@@H](C(=O)N[C@@H]([C@H]2O[C@H](SC)[C@H](OP(=O)(O)O)[C@@H](O)[C@H]2O)[C@H](C)Cl)N(C)C1 [clindamycin-2-phosphate]
DILI severity category (in vivo): Ambiguous DILI-concern

C=CCOc1ccc(CC(=O)O)cc1Cl [alclofenac]
DILI severity category [1]: vMost-DILI-Concern

COc1ccc(CC2c3cc(OC)c(OC)cc3CC[N+]2(C)CCC(=O)OCCCCCOC(=O)CC[N+]2(C)CCc3cc(OC)c(OC)cc3C2Cc2ccc(OC)c(OC)c2)cc1OC (stereo not drawn) [atracurium]
DILI severity category [1]: vNo-DILI-Concern | DILI +VE (5-8), DILI -VE (-4) [2]: -VE

CC(C)CC(N(C)C)C1(c2ccc(Cl)cc2)CCC1 (stereo not drawn) [sibutramine]
DILI +VE (5-8), DILI -VE (-4) (in vivo): +VE | DILI severity category (in vivo): vLess-DILI-Concern

CC(=O)OCC(CCn1cnc2cnc(N)nc21)COC(C)=O [famciclovir]
DILI +VE (5-8), DILI -VE (-4) [3]: -VE | DILI severity category [4]: Ambiguous DILI-concern

agalsidase beta
DILI +VE (5-8), DILI -VE (-4) (in vivo): -VE | DILI severity category (in vivo): vNo-DILI-Concern

O=C(c1cc(O)c(O)c(O)c1)c1ccc(O)c(O)c1O [exifone]
DILI +VE (5-8), DILI -VE (-4) [3]: +VE | DILI severity category [4]: vMost-DILI-Concern

Cc1nc([N+](=O)[O-])cn1-c1ccc([N+](=O)[O-])cc1 [nitrefazole]
DILI +VE (5-8), DILI -VE (-4) [5]: +VE | DILI severity category [6]: vMost-DILI-Concern

Clc1ccc(C(c2ccccc2Cl)C(Cl)Cl)cc1 (stereo not drawn) [mitotane]
DILI +VE (5-8), DILI -VE (-4) [5]: -VE | DILI severity category [6]: vNo-DILI-Concern

CCOC(=O)[C@H](CCc1ccccc1)N[C@@H](C)C(=O)N1[C@H](C(=O)O)C[C@@H]2CCC[C@@H]21 [ramipril]
DILI +VE (5-8), DILI -VE (-4) (in vivo): +VE | DILI severity category (in vivo): vLess-DILI-Concern

OC[C@H]1O[C@@H](O[C@@H]2[C@@H](CO)OC(O)(CO)[C@H]2O)[C@H](O)[C@@H](O)[C@H]1O (mixture of isomers) [lactulose]
DILI +VE (5-8), DILI -VE (-4) [3]: -VE | DILI severity category [4]: vNo-DILI-Concern

Nc1ccc(S(=O)(=O)Nc2ncccn2)cc1 [sulfadiazine]
DILI +VE (5-8), DILI -VE (-4) [5]: +VE | DILI severity category [6]: vLess-DILI-Concern

CC(C)c1cccc(C(C)C)c1O [propofol]
DILI +VE (5-8), DILI -VE (-4) (in vivo): +VE | DILI severity category (in vivo): vLess-DILI-Concern

CC(C)NCC(O)COc1ccc(CCOCC2CC2)cc1 (stereo not drawn) [betaxolol]
DILI severity category [1]: Ambiguous DILI-concern | DILI +VE (5-8), DILI -VE (-4) [2]: -VE

CCOC(=O)[C@H](CCc1ccccc1)N[C@@H](C)C(=O)N1[C@H](C(=O)O)C[C@H]2CCCC[C@@H]21 [trandolapril]
DILI +VE (5-8), DILI -VE (-4) [5]: +VE | DILI severity category [6]: vLess-DILI-Concern

denileukin diftitox
DILI +VE (5-8), DILI -VE (-4) [3]: -VE | DILI severity category [4]: Ambiguous DILI-concern

Cc1nnc2n1-c1ccc(Cl)cc1C(c1ccccc1Cl)=NC2 [triazolam]
DILI +VE (5-8), DILI -VE (-4) (in vivo): -VE | DILI severity category (in vivo): Ambiguous DILI-concern

CC(C)=CCN1CCC2(C)c3cc(O)ccc3CC1C2C (stereo not drawn) [pentazocine]
DILI +VE (5-8), DILI -VE (-4) [5]: -VE | DILI severity category [6]: vNo-DILI-Concern

COc1cccc2c1C(=O)c1c(O)c3c(c(O)c1C2=O)C[C@@](O)(C(=O)CO)C[C@@H]3O[C@H]1C[C@H](N)[C@@H](O)[C@H](C)O1 [epirubicin]
DILI +VE (5-8), DILI -VE (-4) [3]: -VE | DILI severity category [4]: Ambiguous DILI-concern

C=CCC1(C(C)CCC)C(=O)NC(=O)NC1=O (stereo not drawn) [secobarbital]
DILI +VE (5-8), DILI -VE (-4) [5]: -VE | DILI severity category [6]: Ambiguous DILI-concern

NCCc1cnc[nH]1.O=P(O)(O)O.O=P(O)(O)O [histamine diphosphate]
DILI +VE (5-8), DILI -VE (-4) (in vivo): -VE | DILI severity category (in vivo): vNo-DILI-Concern

O=NN(CCCl)C(=O)NC1CCCCC1 [lomustine]
DILI +VE (5-8), DILI -VE (-4) (in vivo): +VE | DILI severity category (in vivo): vLess-DILI-Concern

CN(C)CCc1c[nH]c2ccc(Cn3cncn3)cc12 [rizatriptan]
DILI +VE (5-8), DILI -VE (-4) [5]: -VE | DILI severity category [6]: vNo-DILI-Concern

CCOC(=O)c1cncn1[C@H](C)c1ccccc1 [etomidate]
DILI +VE (5-8), DILI -VE (-4) (in vivo): -VE | DILI severity category (in vivo): vNo-DILI-Concern

CN(C)CCCC1c2ccccc2Nc2ccc(Cl)cc21 (stereo not drawn) [clomacran]
DILI severity category [1]: vMost-DILI-Concern

glatiramer acetate
DILI +VE (5-8), DILI -VE (-4) [3]: -VE | DILI severity category [4]: Ambiguous DILI-concern

palivizumab
DILI +VE (5-8), DILI -VE (-4) [5]: -VE | DILI severity category [6]: vNo-DILI-Concern

C[C@]12CCC(=O)C=C1CC[C@H]1[C@@H]3CC[C@](O)(C(=O)CO)[C@@]3(C)C[C@H](O)[C@@]12F [fludrocortisone]
DILI +VE (5-8), DILI -VE (-4) [3]: -VE | DILI severity category [4]: vNo-DILI-Concern

S=P(N1CC1)(N1CC1)N1CC1 [thiotepa]
DILI +VE (5-8), DILI -VE (-4) [5]: +VE | DILI severity category [6]: vLess-DILI-Concern

CC(O)CN1CCN(CC(=O)[O-])CCN(CC(=O)[O-])CCN(CC(=O)[O-])CC1.[Gd+3] (stereo not drawn) [gadoteridol]
DILI +VE (5-8), DILI -VE (-4) (in vivo): -VE | DILI severity category (in vivo): vNo-DILI-Concern

CCCCS(=O)(=O)N[C@@H](Cc1ccc(OCCCCC2CCNCC2)cc1)C(=O)O [tirofiban]
DILI +VE (5-8), DILI -VE (-4) [5]: -VE | DILI severity category [6]: vNo-DILI-Concern

COc1cc2c(cc1OC)C1CC(=O)C(CC(C)C)CN1CC2 (stereo not drawn) [tetrabenazine]
DILI +VE (5-8), DILI -VE (-4) [5]: -VE | DILI severity category [6]: Ambiguous DILI-concern

Nc1nc2c(c(=O)[nH]1)N(C=O)C(CNc1ccc(C(=O)N[C@@H](CCC(=O)O)C(=O)O)cc1)CN2 (stereo partly drawn) [leucovorin]
DILI +VE (5-8), DILI -VE (-4) [3]: -VE | DILI severity category [4]: vNo-DILI-Concern

CC(C)C[C@H](NC(=O)[C@H](CCCCN)NC(=O)CNC(=O)[C@H](CC(C)C)NC(=O)[C@@H](NC(=O)[C@@H]1CSSC[C@H](N)C(=O)N[C@@H](CO)C(=O)N[C@@H](CC(N)=O)C(=O)N[C@@H](CC(C)C)C(=O)N[C@@H](CO)C(=O)N[C@@H]([C@@H](C)O)C(=O)N1)C(C)C)C(=O)N[C@@H](CO)C(=O)N[C@@H](CCC(N)=O)C(=O)N[C@@H](CCC(=O)O)C(=O)N[C@@H](CC(C)C)C(=O)N[C@@H](Cc1c[nH]cn1)C(=O)N[C@@H](CCCCN)C(=O)N[C@@H](CC(C)C)C(=O)N[C@@H](CCC(N)=O)C(=O)N[C@H](C(=O)N[C@@H](Cc1ccc(O)cc1)C(=O)N1CCC[C@H]1C(=O)N[C@@H](CCCNC(=N)N)C(=O)N[C@H](C(=O)N[C@@H](CC(N)=O)C(=O)N[C@H](C(=O)NCC(=O)N[C@@H](CO)C(=O)NCC(=O)N[C@H](C(=O)N1CCC[C@H]1C(N)=O)[C@@H](C)O)[C@@H](C)O)[C@@H](C)O)[C@@H](C)O [calcitonin salmon]
DILI +VE (5-8), DILI -VE (-4) (in vivo): -VE | DILI severity category (in vivo): vNo-DILI-Concern

CNC1(c2ccccc2Cl)CCCCC1=O (stereo not drawn) [ketamine]
DILI +VE (5-8), DILI -VE (-4) [3]: +VE | DILI severity category [4]: vLess-DILI-Concern

simethicone
DILI +VE (5-8), DILI -VE (-4) (in vivo): -VE | DILI severity category (in vivo): vNo-DILI-Concern

CCN1CC(CCN2CCOCC2)C(c2ccccc2)(c2ccccc2)C1=O (stereo not drawn) [doxapram]
DILI +VE (5-8), DILI -VE (-4) [3]: -VE | DILI severity category [4]: vNo-DILI-Concern

CO[C@H]1C[C@@H]2CC[C@@H](C)[C@@](O)(O2)C(=O)C(=O)N2CCCC[C@H]2C(=O)O[C@H]([C@H](C)C[C@@H]2CC[C@@H](O)[C@H](OC)C2)CC(=O)[C@H](C)/C=C(\C)[C@@H](O)[C@@H](OC)C(=O)[C@H](C)C[C@H](C)/C=C/C=C/C=C/1C [sirolimus]
DILI +VE (5-8), DILI -VE (-4) [5]: +VE | DILI severity category [6]: vLess-DILI-Concern

CN[C@@H](C)[C@H](O)c1ccccc1 [ephedrine]
DILI +VE (5-8), DILI -VE (-4) (in vivo): -VE | DILI severity category (in vivo): vNo-DILI-Concern

golimumab
DILI +VE (5-8), DILI -VE (-4) (in vivo): -VE | DILI severity category (in vivo): Ambiguous DILI-concern

CC[C@H](C)C[C@H](C)CCCCCCCCC(=O)N[C@H]1C[C@@H](O)[C@@H](NCCN)NC(=O)[C@@H]2[C@@H](O)CCN2C(=O)[C@H]([C@H](O)CCN)NC(=O)[C@H]([C@H](O)[C@@H](O)c2ccc(O)cc2)NC(=O)[C@@H]2C[C@@H](O)CN2C(=O)[C@H]([C@@H](C)O)NC1=O [caspofungin]
DILI severity category [1]: Ambiguous DILI-concern | DILI +VE (5-8), DILI -VE (-4) [2]: -VE

CCOc1cc(CC(=O)N[C@@H](CC(C)C)c2ccccc2N2CCCCC2)ccc1C(=O)O [repaglinide]
DILI +VE (5-8), DILI -VE (-4) [5]: +VE | DILI severity category [6]: vLess-DILI-Concern

COc1ccccc1OCCNCC(O)COc1cccc2[nH]c3ccccc3c12 (stereo not drawn) [carvedilol]
DILI severity category [1]: vLess-DILI-Concern

bivalirudin
DILI severity category [1]: vNo-DILI-Concern | DILI +VE (5-8), DILI -VE (-4) [2]: -VE

N[C@@H](C(=O)N[C@@H]1C(=O)N2C(C(=O)O)=C(Cl)CS[C@H]12)c1ccccc1 [cefaclor]
DILI severity category [1]: vLess-DILI-Concern

COc1ccc2c3c1O[C@H]1[C@@H](O)C=C[C@H]4[C@@H](C2)N(C)CC[C@@]341 [codeine]
DILI +VE (5-8), DILI -VE (-4) (in vivo): -VE | DILI severity category (in vivo): vNo-DILI-Concern

O=C(O)C(=O)O.[NH-][C@@H]1CCCC[C@H]1[NH-].[Pt+2] [oxaliplatin]
DILI +VE (5-8), DILI -VE (-4) [5]: +VE | DILI severity category [6]: vMost-DILI-Concern

CO/N=C(\C(=O)N[C@@H]1C(=O)N2C(C(=O)O)=C(COC(N)=O)CS[C@H]12)c1ccco1 [cefuroxime]
DILI severity category [1]: vLess-DILI-Concern

CCCC(C)C1(CC)C(=O)NC(=O)NC1=O (stereo not drawn) [pentobarbital]
DILI +VE (5-8), DILI -VE (-4) [5]: -VE | DILI severity category [6]: Ambiguous DILI-concern

C=C1C[C@@H]2[C@H](CC[C@]3(C)C(=O)CC[C@@H]23)[C@@]2(C)C=CC(=O)C=C12 [exemestane]
DILI +VE (5-8), DILI -VE (-4) [3]: +VE | DILI severity category [4]: vMost-DILI-Concern
